Active and inactive are the calls of the source. No rule for the calls is given here.
Test system: GENE-TOX genotoxicity assays, various organisms and cells
Assay: GENE-TOX mutagenicity studies
Details: for call: Assay Type: In vivo carcinogenicity studies
Description: GENE-TOX provides genetic toxicology (mutagenicity) test data from expert peer review of open scientific literature for more than 3,000 chemicals from the United States Environmental Protection Agency (EPA). GENE-TOX was established to select assay systems for evaluation, review data in the scientific literature, and recommend proper testing protocols and evaluation procedures for these systems.
GENE-TOX covers the years 1991 - 1998. It is no longer updated.
This is an archive assay for GENE-TOX mutagenicity studies.

[1] = Species/Cell Type: Salmonella typhimurium (one or more of the five standard strains: TA98, TA100, TA1535, TA1537, and TA1538), Assay Type: Histidine reverse gene mutation, Ames assay, Assay Code: SAL+*, Activation: With metabolic activation, Evaluation Type: Evaluation A (Pre-1980)
[2] = Species/Cell Type: Human lymphocytes, Assay Type: Sister-chromatid exchange (SCE) in vitro, Assay Code: SCL+D, Dose Response: With dose response, Evaluation Type: Evaluation B (Post-1980)
[3] = Species/Cell Type: Human, Assay Type: Sister-chromatid exchange (SCE) in vitro, Assay Code: SC1+D, Dose Response: With dose response, Evaluation Type: Evaluation B (Post-1980)
[4] = Species/Cell Type: Nonhuman, Assay Type: Sister-chromatid exchange (SCE) in vitro, Assay Code: SC2+D, Dose Response: With dose response, Evaluation Type: Evaluation B (Post-1980)
[5] = Species/Cell Type: Drosophila melanogaster, Assay Type: Aneuploidy, sex chromosome gain, chromosome aberrations, Assay Code: DAG-F, Evaluation Type: Evaluation A (Pre-1980)
[6] = Species/Cell Type: Drosophila melanogaster, Assay Type: Aneuploidy, whole sex chromosome loss, chromosome aberrations, Assay Code: DAC-F, Evaluation Type: Evaluation A (Pre-1980)
[7] = Species/Cell Type: Drosophila melanogaster, Assay Type: Sex-linked recessive lethal gene mutation, Assay Code: SRLT, Evaluation Type: Evaluation A (Pre-1980)
[8] = Species/Cell Type: Mammalian polychromatic erythrocytes, Assay Type: Micronucleus test, chromosome aberrations, Assay Code: MNTT, Evaluation Type: Evaluation A (Pre-1980)
[9] = Species/Cell Type: Mouse, Sex: Male, Assay Type: Sperm morphology, Assay Code: SPI-, Evaluation Type: Evaluation A (Pre-1980)
[10] = Species/Cell Type: Salmonella typhimurium (one or more of the five standard strains: TA98, TA100, TA1535, TA1537, and TA1538), Assay Type: Histidine reverse gene mutation, Ames assay, Assay Code: SAL-, Evaluation Type: Evaluation A (Pre-1980)
[11] = Species/Cell Type: Salmonella typhimurium (one or more of the five standard strains: TA98, TA100, TA1535, TA1537, and TA1538), Assay Type: Histidine reverse gene mutation, Ames assay, Assay Code: SAL+, Evaluation Type: Evaluation A (Pre-1980)
[12] = Species/Cell Type: Bacillus subtilis (H17 vs M45), Assay Type: Rec-assay, spot test, DNA effects (bacterial DNA repair), Assay Code: REWT, Evaluation Type: Evaluation A (Pre-1980)

C/C=C1/C[C@@H](C)[C@](O)(CO)C(=O)OCC2=CCN3CC[C@@H](OC1=O)[C@@H]23
mutagenic call (Species/Cell Type: Drosophila melanogaster, Assay Type: Sex-linked recessive lethal gene mutation, Assay Code: SRL+, Evaluation Type: Evaluation A (Pre-1980)): active; positive | mutagenic call [1]: active; positive

C1CN(P2(N3CC3)=NP(N3CC3)(N3CC3)=NP(N3CC3)(N3CC3)=N2)CCO1 (stereo not given)
mutagenic call (Species/Cell Type: Human lymphocytes or leukocytes, Assay Type: Chromosome aberrations in vitro, Assay Code: CY7+, Evaluation Type: Evaluation A (Pre-1980)): active; positive | mutagenic call [2]: active; positive | mutagenic call [3]: active; positive | mutagenic call [4]: active; positive | mutagenic call (Species/Cell Type: Rodents, Sex: Male, Assay Type: Dominant lethal test, Assay Code: DLT+, Evaluation Type: Evaluation A (Pre-1980)): active; positive

Nc1ccc2nc3ccccn3c2n1
mutagenic call [2]: active; positive | mutagenic call [3]: active; positive

c1cc2cc3c4c(ccc5cc6c(c1CCC6)c2c54)CCC3
mutagenic call [1]: active; positive

CC[N+]([O-])(CC)CCNc1ccc(C)c2sc3ccccc3c(=O)c12
mutagenic call (Species/Cell Type: Salmonella typhimurium (one or more of the five standard strains: TA98, TA100, TA1535, TA1537, and TA1538), Assay Type: Histidine reverse gene mutation, Ames assay, Assay Code: SALT, Evaluation Type: Evaluation A (Pre-1980)): no conclusion

Nc1ncn[nH]1
mutagenic call (Species/Cell Type: Allium cepa, Assay Type: Chromosome aberrations, Assay Code: ALC+, Evaluation Type: Evaluation A (Pre-1980)): active; positive | mutagenic call [5]: inactive; negative | mutagenic call [6]: inactive; negative | mutagenic call [7]: no conclusion | mutagenic call (Species/Cell Type: Escherichia coli polA (W3110 vs P3478), Assay Type: Rec-assay, DNA effects (bacterial DNA repair), Assay Code: RE2-, Evaluation Type: Evaluation A (Pre-1980)): inactive; negative | mutagenic call (Species/Cell Type: Escherichia coli polA (W3119 vs P3478), Assay Type: Rec-assay, DNA effects (bacterial DNA repair), Assay Code: RE1-, Evaluation Type: Evaluation A (Pre-1980)): inactive; negative | mutagenic call (Species/Cell Type: Fischer rat embryo (RLV/1706) cells, Assay Type: Cell transformation, viral enhanced, Assay Code: CTR+, Evaluation Type: Evaluation A (Pre-1980)): active; positive | mutagenic call (Species/Cell Type: Hordeum vulgare (barley), Assay Type: Chromosome aberrations, Assay Code: HOC+, Evaluation Type: Evaluation A (Pre-1980)): active; positive | mutagenic call (Species/Cell Type: Human diploid fibroblasts, Assay Type: Unscheduled DNA synthesis (UDS) in vitro, DNA effects, Assay Code: UDH-, Evaluation Type: Evaluation A (Pre-1980)): inactive; negative | mutagenic call [8]: no conclusion | mutagenic call [9]: inactive; negative | mutagenic call (Species/Cell Type: Neurospora crassa, Assay Type: Aneuploidy, chromosome aberrations, Assay Code: NEN-, Evaluation Type: Evaluation A (Pre-1980)): inactive; negative | call (Species/Cell Type: Nonhuman, Assay Code: CCG+, Evaluation Type: Evaluation A (Pre-1980)): active; positive | mutagenic call (Species/Cell Type: Nonhuman, Assay Type: Sister-chromatid exchange (SCE) in vitro, Assay Code: SC2+D*, Activation: With metabolic activation, Dose Response: With dose response, Evaluation Type: Evaluation B (Post-1980)): active; positive | mutagenic call (Species/Cell Type: Saccharomyces cerevisiae, Assay Type: Mitotic recombination or gene conversion, Assay Code: YEH-, Evaluation Type: Evaluation A (Pre-1980)): inactive; negative | mutagenic call [10]: inactive; negative | mutagenic call (Species/Cell Type: Salmonella typhimurium, Assay Type: Forward and reverse gene mutation, host-mediated assay, Assay Code: HMA+, Evaluation Type: Evaluation A (Pre-1980)): active; positive | mutagenic call (Species/Cell Type: Syrian hamster embryo (SHE) cells, Assay Type: Cell transformation, clonal assay, Assay Code: CTC+, Evaluation Type: Evaluation A (Pre-1980)): active; positive | mutagenic call (Species/Cell Type: Vicia faba, Assay Type: Chromosome aberrations, Assay Code: VIC+, Evaluation Type: Evaluation A (Pre-1980)): active; positive

OCC(c1ccc(Cl)cc1)c1ccc(Cl)cc1
mutagenic call [7]: no conclusion

O=[N+]([O-])c1cccc2cn[nH]c12
mutagenic call [11]: active; positive

NC(=S)c1ccccc1
mutagenic call (Species/Cell Type: Mammalian polychromatic erythrocytes, Assay Type: Micronucleus test, chromosome aberrations, Assay Code: MNT+, Evaluation Type: Evaluation B (Post-1980)): active; positive

c1nncnn1
mutagenic call [12]: no conclusion

O=S(=O)(O)NC1CCCCC1
mutagenic call [5]: inactive; negative | mutagenic call [6]: inactive; negative | mutagenic call [7]: no conclusion | mutagenic call (Species/Cell Type: Mammalian germ cells, Sex: Male, Assay Type: Chromosome aberrations in vivo, Assay Code: CY9T, Evaluation Type: Evaluation A (Pre-1980)): no conclusion | mutagenic call [8]: no conclusion | mutagenic call [9]: inactive; negative | mutagenic call (Species/Cell Type: Nonhuman bone marrow, Assay Type: Chromosome aberrations, in vivo, Assay Code: CY#T, Evaluation Type: Evaluation A (Pre-1980)): no conclusion | mutagenic call (Species/Cell Type: Rodents, Sex: Female, Assay Type: Dominant lethal test, Assay Code: DLTF-, Evaluation Type: Evaluation A (Pre-1980)): inactive; negative | mutagenic call (Species/Cell Type: Rodents, Sex: Male, Assay Type: Dominant lethal test, Assay Code: DLT-, Evaluation Type: Evaluation A (Pre-1980)): inactive; negative | mutagenic call (Species/Cell Type: Salmonella typhimurium, Serratia marcesens, Assay Type: Forward and reverse gene mutation, host-mediated assay, Assay Code: HM2-, Evaluation Type: Evaluation A (Pre-1980)): inactive; negative

O=C1C(c2[nH]c3ccc(S(=O)(=O)O)cc3c2O)=Nc2ccc(S(=O)(=O)O)cc21
mutagenic call [12]: no conclusion | mutagenic call (Species/Cell Type: Bacillus subtilis (H17 vs M45T), Assay Type: Rec-assay, spot test, DNA effects (bacterial DNA repair), Assay Code: REXT, Evaluation Type: Evaluation A (Pre-1980)): no conclusion | mutagenic call (Species/Cell Type: Saccharomyces cerevisiae, Assay Type: Mitotic recombination or gene conversion, Assay Code: YEC-, Evaluation Type: Evaluation A (Pre-1980)): inactive; negative | mutagenic call [10]: inactive; negative

BrC(Br)C(Br)Br
mutagenic call (Species/Cell Type: Escherichia coli polA (W3119 vs P3478), Assay Type: Rec-assay, DNA effects (bacterial DNA repair), Assay Code: RE1+, Evaluation Type: Evaluation A (Pre-1980)): active; positive

C1=Cc2c3c1cccc3cc1ccc3ccccc3c21
mutagenic call (Species/Cell Type: Nonhuman, Assay Type: Sister-chromatid exchange (SCE) in vivo, Assay Code: SC3+D, Dose Response: With dose response, Evaluation Type: Evaluation B (Post-1980)): active; positive

CNC(=O)ON=CC(C)(C)SC
mutagenic call [2]: active; positive | mutagenic call [3]: active; positive | call (Species/Cell Type: Nonhuman, Assay Code: CCG-, Evaluation Type: Evaluation A (Pre-1980)): inactive; negative

CNC(=O)C(C)SCCSP(=O)(OC)OC (stereo not given)
mutagenic call (Species/Cell Type: Bacillus subtilis (H17 vs M45), Assay Type: Rec-assay, spot test, DNA effects (bacterial DNA repair), Assay Code: REW+, Evaluation Type: Evaluation A (Pre-1980)): active; positive | mutagenic call (Species/Cell Type: Escherichia coli WP2, Assay Type: Tryptophan reverse gene mutation, Assay Code: WP2+, Evaluation Type: Evaluation A (Pre-1980)): active; positive | mutagenic call (Species/Cell Type: Escherichia coli WP2 UVRA, Assay Type: Tryptophan reverse gene mutation, Assay Code: WPU+, Evaluation Type: Evaluation A (Pre-1980)): active; positive | mutagenic call [4]: active; positive | mutagenic call [11]: active; positive

[Mg+2]
mutagenic call (Species/Cell Type: Bacillus subtilis (H17 vs M45), Assay Type: Rec-assay, spot test, DNA effects (bacterial DNA repair), Assay Code: REW-, Evaluation Type: Evaluation A (Pre-1980)): inactive; negative

CO[C@@H]1CC(O[C@H]2CC[C@@]3(C=O)[C@](O)(CC[C@]4(C)[C@]3(C)CC[C@]3(C)[C@@H](C5=CC(=O)OC5)CC[C@@]43O)C2)O[C@H](C)C1O[C@H]1C[C@@H](CO)[C@H](O)[C@@H](O)[C@@H]1O (stereo not given in full)
mutagenic call (Species/Cell Type: Nonhuman, Assay Type: Sister-chromatid exchange (SCE) in vitro, Assay Code: SC2-, Evaluation Type: Evaluation B (Post-1980)): inactive; negative

C=CCN(N=O)C(N)=O
mutagenic call (Species/Cell Type: Arabidopsis species, Assay Type: Gene mutation, Assay Code: ARM+D, Dose Response: With dose response, Evaluation Type: Evaluation A (Pre-1980)): active; positive | mutagenic call (Species/Cell Type: Saccharomyces cerevisiae, Assay Type: Mitotic recombination or gene conversion, Assay Code: YEC+, Evaluation Type: Evaluation A (Pre-1980)): active; positive

N/C(=N\O)c1ccc([N+](=O)[O-])o1
mutagenic call [4]: active; positive | mutagenic call [11]: active; positive

CCCCOc1ccc2nc3cc(Cl)ccc3c(NCCCN(CC)CCCl)c2n1
mutagenic call (Species/Cell Type: Chinese hamster ovary (CHO) cells, Assay Type: Forward gene mutation at the HPRT locus, Assay Code: CHO+, Evaluation Type: Evaluation B (Post-1980)): active; positive
